Reference: ChEMBL document CHEMBL5154930, “Design, Synthesis, and Biological Evaluations of DOT1L Peptide Mimetics Targeting the Protein-Protein Interactions between DOT1L and MLL-AF9/MLL-ENL” (J Med Chem, 2022)
Active and inactive are the calls of the source. The rule behind the calls is not given here.

How the values were obtained:
MV4-11 = experiment: Anticancer activity against human MV4-11 cells assessed as inhibition of cell growth treated for 8 days measured by CCK-8 kit method; format: functional, cell-based; details: MV4-11, 192 h
MOLM-13 [1] = experiment: Down regulation of CDK1 gene in human MOLM-13 cells by RNA-sequencing analysis; format: functional, cell-based
MOLM-13 [2] = experiment: Inhibition of methylation of H3K79 in human MOLM-13 cells assessed as inhibition of methylation at HOXA11 gene cluster by chromatin immunoprecipitation assay; format: functional, cell-based
MOLM-13 [3] = experiment: Down regulation of GATA2 gene in human MOLM-13 cells by RNA-sequencing analysis; format: functional, cell-based
MOLM-13 [4] = experiment: Down regulation of HOXA3 gene in human MOLM-13 cells by RNA-sequencing analysis; format: functional, cell-based
MOLM-13 [5] = experiment: Down regulation of HOXA10 gene in human MOLM-13 cells by RNA-sequencing analysis; format: functional, cell-based
MOLM-13 [6] = experiment: Inhibition of MEIS1 expression in human MOLM-13 cells at 0.25 uM by RT-qPCR analysis; format: functional, cell-based; details: time 2-6 day, TDE = time-dependent effect
MOLM-13 [7] = experiment: Inhibition of methylation of H3K79 in human MOLM-13 cells assessed as inhibition of methylation at […] gene cluster by chromatin immunoprecipitation assay; format: functional, cell-based
MOLM-13 [8] = experiment: Inhibition of methylation of H3K79 in human MOLM-13 cells assessed as inhibition of methylation at HOXA6 gene cluster by chromatin immunoprecipitation assay; format: functional, cell-based
MOLM-13 [9] = experiment: Inhibition of methylation of H3K79 in human MOLM-13 cells assessed as inhibition of methylation at MEIS1 gene cluster by chromatin immunoprecipitation assay; format: functional, cell-based
MOLM-13 [10] = experiment: Inhibition of HOXA9 gene expression in human MOLM-13 cells at 0.25 uM by RT-qPCR analysis; format: functional, cell-based; details: time 2-6 day, TDE = time-dependent effect
MOLM-13 [11] = experiment: Inhibition of MEIS1 gene expression in human MOLM-13 cells measured at 0.125 to 0.5 uM after 6 days by RT-qPCR analysis; format: functional, cell-based; details: dose 0.125-0.5 µM, time 6.0 day
KOPN-8 = experiment: cells; details: Homo sapiens, KOPN-8, 192 h
Description: Anticancer activity against human KOPN-8 cells harbouring MLL-ENL assessed as inhibition of cell growth treated for 8 days measured by CCK-8 kit method

MOLM-13 [12] = experiment: Inhibition of methylation of H3K79 in human MOLM-13 cells assessed as inhibition of methylation at HOXA13 gene cluster by chromatin immunoprecipitation assay; format: functional, cell-based
MOLM-13 [13] = experiment: Inhibition of methylation of H3K79 in human MOLM-13 cells assessed as inhibition of methylation at HOXA4 gene cluster by chromatin immunoprecipitation assay; format: functional, cell-based
MOLM-13 [14] = experiment: cells; details: Homo sapiens, MOLM-13, 144 h
Description: Anticancer activity against human MOLM-13 cells harbouring MLL-AF9 assessed as inhibition of cell growth treated for 6 days measured by CCK-8 kit method

MOLM-13 [15] = experiment: Inhibition of methylation of H3K79 in human MOLM-13 cells assessed as inhibition of methylation at HOXA3 gene cluster by chromatin immunoprecipitation assay; format: functional, cell-based
MOLM-13 [16] = experiment: Down regulation of HOXA9 gene in human MOLM-13 cells by RNA-sequencing analysis; format: functional, cell-based
MOLM-13 [17] = experiment: Down regulation of DCUN1D1 gene in human MOLM-13 cells by RNA-sequencing analysis; format: functional, cell-based
MOLM-13 [18] = experiment: Down regulation of ARID1B gene in human MOLM-13 cells by RNA-sequencing analysis; format: functional, cell-based
MOLM-13 [19] = experiment: Inhibition of methylation of H3K79 in human MOLM-13 cells assessed as inhibition of methylation at HOXA1 gene cluster by chromatin immunoprecipitation assay; format: functional, cell-based
MOLM-13 [20] = experiment: Down regulation of RUNX1 gene in human MOLM-13 cells by RNA-sequencing analysis; format: functional, cell-based
MOLM-13 [21] = experiment: Inhibition of HOXA9 gene expression in human MOLM-13 cells measured at 0.125 to 0.5 uM after 6 days by RT-qPCR analysis; format: functional, cell-based; details: dose 0.125-0.5 µM, time 6.0 day
MOLM-13 [22] = experiment: Inhibition of methylation of H3K79 in human MOLM-13 cells assessed as inhibition of methylation at HOXA5 gene cluster by chromatin immunoprecipitation assay; format: functional, cell-based
MOLM-13 [23] = experiment: Down regulation of GBE1 gene in human MOLM-13 cells by RNA-sequencing analysis; format: functional, cell-based
MOLM-13 [24] = experiment: Down regulation of MEIS1 gene in human MOLM-13 cells by RNA-sequencing analysis; format: functional, cell-based
MOLM-13 [25] = experiment: Down regulation of […] gene in human MOLM-13 cells by RNA-sequencing analysis; format: functional, cell-based
MOLM-13 [26] = experiment: Down regulation of HOXA11 gene in human MOLM-13 cells by RNA-sequencing analysis; format: functional, cell-based
MOLM-13 [27] = experiment: cells; details: Homo sapiens, MOLM-13, 168 h
Description: Anticancer activity against human MOLM-13 cells harbouring MLL-AF9 assessed as inhibition of cell growth treated for 7 days measured by CCK-8 kit method

MOLM-13 [28] = experiment: Down regulation of HOXA5 gene in human MOLM-13 cells by RNA-sequencing analysis; format: functional, cell-based
MOLM-13 [29] = experiment: Down regulation of CDK6 gene in human MOLM-13 cells by RNA-sequencing analysis; format: functional, cell-based
MOLM-13 [30] = experiment: cells; details: Homo sapiens, MOLM-13, 192 h
Description: Anticancer activity against human MOLM-13 cells harbouring MLL-AF9 assessed as inhibition of cell growth treated for 8 days measured by CCK-8 kit method

MOLM-13 [31] = experiment: Down regulation of TUBA1B gene in human MOLM-13 cells by RNA-sequencing analysis; format: functional, cell-based
MOLM-13 [32] = experiment: Down regulation of SKP2 gene in human MOLM-13 cells by RNA-sequencing analysis; format: functional, cell-based
MOLM-13 [33] = experiment: Inhibition of methylation of H3K79 in human MOLM-13 cells assessed as inhibition of methylation at HOXA2 gene cluster by chromatin immunoprecipitation assay; format: functional, cell-based
MOLM-13 [34] = experiment: cells; details: Homo sapiens, MOLM-13, 216 h
Description: Anticancer activity against human MOLM-13 cells harbouring MLL-AF9 assessed as inhibition of cell growth treated for 9 days measured by CCK-8 kit method

MOLM-13 [35] = experiment: Down regulation of AC011043.1 gene in human MOLM-13 cells by RNA-sequencing analysis; format: functional, cell-based
MOLM-13 [36] = experiment: Inhibition of methylation of H3K79 in human MOLM-13 cells assessed as inhibition of methylation at HOXA9 gene cluster by chromatin immunoprecipitation assay; format: functional, cell-based
MOLM-13 [37] = experiment: Induction of apoptosis in human MOLM-13 cells at 0.125 to 0.5 uM treated for 7 days by Annexin V-FITC/PI staining based flow cytometry analysis; format: functional, cell-based; details: dose 0.125-0.5 µM, time 7.0 day
MOLM-13 [38] = experiment: Inhibition of methylation of H3K79 in human MOLM-13 cells assessed as inhibition of methylation at MEIS1-AS3 gene cluster by chromatin immunoprecipitation assay; format: functional, cell-based
MOLM-13 [39] = experiment: Inhibition of methylation of H3K79 in human MOLM-13 cells assessed as inhibition of methylation at HOXA-AS2 gene cluster by chromatin immunoprecipitation assay; format: functional, cell-based
MOLM-13 [40] = experiment: Inhibition of methylation of H3K79 in human MOLM-13 cells assessed as inhibition of methylation at HOXA10 gene cluster by chromatin immunoprecipitation assay; format: functional, cell-based
MOLM-13 [41] = experiment: Down regulation of CNOT6L gene in human MOLM-13 cells by RNA-sequencing analysis; format: functional, cell-based
MOLM-13 [42] = experiment: Disruption of AF9-mediated DOT1L recruitment in human […] cells assessed as decrease in global H3K79 methylation level at 0.125 uM measured after 8 days by Western blotting analysis; format: cell-based; details: time 8.0 day
MOLM-13 [43] = experiment: Down regulation of HPGD gene in human MOLM-13 cells by RNA-sequencing analysis; format: functional, cell-based
MOLM-13 [44] = experiment: Down regulation of JMJD1C gene in human MOLM-13 cells by RNA-sequencing analysis; format: functional, cell-based
MOLM-13 [45] = experiment: Inhibition of methylation of H3K79 in human MOLM-13 cells assessed as inhibition of methylation at HOXA7 gene cluster by chromatin immunoprecipitation assay; format: functional, cell-based
K562 = experiment: Anticancer activity against human K562 cells assessed as inhibition of cell growth treated for 8 days measured by CCK-8 kit method; format: functional, cell-based; details: K562, 192 h
MOLM-13 [46] = experiment: Down regulation of MEF2C gene in human MOLM-13 cells by RNA-sequencing analysis; format: functional, cell-based
MOLM-13 [47] = experiment: Down regulation of SSBP2 gene in human MOLM-13 cells by RNA-sequencing analysis; format: functional, cell-based
MOLM-13 [48] = experiment: Down regulation of ARID2 gene in human MOLM-13 cells by RNA-sequencing analysis; format: functional, cell-based
MOLM-13 [49] = experiment: cells; details: Homo sapiens, MOLM-13, 120 h
Description: Anticancer activity against human MOLM-13 cells harbouring MLL-AF9 assessed as inhibition of cell growth treated for 5 days measured by CCK-8 kit method

MOLM-13 [50] = experiment: Down regulation of CDKN1B gene in human MOLM-13 cells by RNA-sequencing analysis; format: functional, cell-based
RS4-11 = experiment: Anticancer activity against human RS4-11 cells assessed as inhibition of cell growth treated for 8 days measured by CCK-8 kit method; format: functional, cell-based; details: RS4-11, 192 h
MOLM-13 [51] = experiment: cells; details: Homo sapiens, MOLM-13, 96 h
Description: Anticancer activity against human MOLM-13 cells harbouring MLL-AF9 assessed as inhibition of cell growth treated for 4 days measured by CCK-8 kit method

MOLM-13 [52] = experiment: Down regulation of PBX3 gene in human MOLM-13 cells by RNA-sequencing analysis; format: functional, cell-based
MOLM-13 [53] = experiment: Down regulation of MCM2 gene in human MOLM-13 cells by RNA-sequencing analysis; format: functional, cell-based

CC(C)N(C[C@H]1O[C@@H](n2cnc3c(N)ncnc32)[C@H](O)[C@@H]1O)[C@H]1C[C@@H](CCc2nc3cc(C(C)(C)C)ccc3[nH]2)C1 [PINOMETOSTAT]
IC50 (MV4-11): 50 nM | Activity (MOLM-13 [1]): Active | inhibition (MOLM-13 [2]): Active | Activity (MOLM-13 [3]): Active | Activity (MOLM-13 [4]): Active | Activity (MOLM-13 [5]): Active | inhibition (MOLM-13 [6]): Tde | inhibition (MOLM-13 [7]): Active | inhibition (MOLM-13 [8]): Active | inhibition (MOLM-13 [9]): Active | inhibition (MOLM-13 [10]): Tde | inhibition (MOLM-13 [11]): Active | IC50 (KOPN-8): 60 nM | inhibition (MOLM-13 [12]): Active | inhibition (MOLM-13 [13]): Active | IC50 (MOLM-13 [14]): 73 nM | inhibition (MOLM-13 [15]): Active | Activity (MOLM-13 [16]): Active | Activity (MOLM-13 [17]): Active | Activity (MOLM-13 [18]): Active | inhibition (MOLM-13 [19]): Active | Activity (MOLM-13 [20]): Active | inhibition (MOLM-13 [21]): Active | inhibition (MOLM-13 [22]): Active | Activity (MOLM-13 [23]): Active | Activity (MOLM-13 [24]): Active | Activity (MOLM-13 [25]): Active | Activity (MOLM-13 [26]): Active | IC50 (MOLM-13 [27]): 59 nM | Activity (MOLM-13 [28]): Active | Activity (MOLM-13 [29]): Active | IC50 (MOLM-13 [30]): 30 nM | Activity (MOLM-13 [31]): Active | Activity (MOLM-13 [32]): Active | inhibition (MOLM-13 [33]): Active | IC50 (MOLM-13 [34]): 21 nM | Activity (MOLM-13 [35]): Active | inhibition (MOLM-13 [36]): Active | Activity (MOLM-13 [37]): Active | inhibition (MOLM-13 [38]): Active | inhibition (MOLM-13 [39]): Active | inhibition (MOLM-13 [40]): Active | Activity (MOLM-13 [41]): Active | inhibition (MOLM-13 [42]): 100% | Activity (MOLM-13 [43]): Active | Activity (MOLM-13 [44]): Active | inhibition (MOLM-13 [45]): Active | IC50 (K562): 31000 nM | Activity (MOLM-13 [46]): Active | Activity (MOLM-13 [47]): Active | Activity (MOLM-13 [48]): Active | IC50 (MOLM-13 [49]): 97 nM | Activity (MOLM-13 [50]): Active | IC50 (RS4-11): 70 nM | IC50 (MOLM-13 [51]): 227 nM | Activity (MOLM-13 [52]): Active | Activity (MOLM-13 [53]): Active
